Source: ChEMBL document CHEMBL1201862, “PubChem BioAssay data set” (2004)
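Method: 48-hour compound exposure of cells in 96-well plates, five concentrations, linear interpolation of endpoints. Abbreviation: GI50, concentration required for 50% inhibition of growth.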 Active and inactive are the calls of the source. No stated cut-off is given here; in the data, active = GI50 up to about 1.1 µM and inactive = higher.

Columns and labels:
Assay in all cases: NCI anticancer screen, dose series, 48 h
[1] = tested on: SF-268
[2] = tested on: MDA-MB-231
[3] = tested on: SF-295
[4] = tested on: UO-31
[5] = tested on: UACC-62
[6] = tested on: SK-OV-3
[7] = tested on: SNB-75
[8] = tested on: OVCAR-4
[9] = tested on: BT-549
[10] = tested on: HCT-15
[11] = tested on: COLO 205
[12] = tested on: HCT-116
[13] = tested on: OVCAR-8
[14] = tested on: SK-MEL-28
[15] = tested on: MCF7
[16] = tested on: CCRF-CEM
[17] = tested on: OVCAR-5
[18] = tested on: IGROV-1
[19] = tested on: SN12C
[20] = tested on: PC-3
[21] = tested on: U-251
[22] = tested on: HOP-92
[23] = tested on: Malme-3M
[24] = tested on: UACC-257
[25] = tested on: SNB-19
[26] = tested on: SK-MEL-5
[27] = tested on: ACHN
[28] = tested on: SF-539
[29] = tested on: MDA-MB-435
[30] = tested on: HL-60
[31] = tested on: MOLT-4
[32] = tested on: DU-145
[33] = tested on: NCI/ADR-RES
[34] = tested on: NCI-H23
[35] = tested on: SK-MEL-2
[36] = tested on: MDA-N
[37] = tested on: SW-620
[38] = tested on: TK-10
[39] = tested on: HT-29
[40] = tested on: A549
[41] = tested on: NCI-H522
[42] = tested on: RXF 393
[43] = tested on: HOP-62
[44] = tested on: LOX IMVI
[45] = tested on: Hs-578T
[46] = tested on: KM12
[47] = tested on: A498
[48] = tested on: SR
[49] = tested on: CAKI-1
[50] = tested on: T47D
[51] = tested on: NCI-H460
[52] = tested on: OVCAR-3
[53] = tested on: 786-0
[54] = tested on: EKVX
[55] = tested on: NCI-H226
[56] = tested on: HCC 2998
[57] = tested on: M14
[58] = tested on: K562
[59] = tested on: RPMI-8226

COC(=O)/C(=N/NC(N)=O)C(C(=O)C(=O)Nc1ccc(C)cc1)c1nc2ccc(C(=O)c3ccccc3)cc2nc1O (stereo not given)
GI50 [1]: > 100000 nM (inactive) | GI50 [2]: > 100000 nM (inactive) | GI50 [3]: > 100000 nM (inactive) | GI50 [4]: 30500 nM (inactive) | GI50 [5]: 51400 nM (inactive) | GI50 [6]: > 100000 nM (inactive) | GI50 [7]: 39700 nM (inactive) | GI50 [8]: > 100000 nM (inactive) | GI50 [9]: > 100000 nM (inactive) | GI50 [10]: > 100000 nM | GI50 [11]: > 100000 nM (inactive) | GI50 [12]: > 100000 nM (inactive) | GI50 [13]: 75200 nM (inactive) | GI50 [14]: > 100000 nM (inactive) | GI50 [15]: 91400 nM (inactive) | GI50 [16]: 49000 nM (inactive) | GI50 [17]: > 100000 nM (inactive) | GI50 [18]: 23700 nM (inactive) | GI50 [19]: > 100000 nM (inactive) | GI50 [20]: > 100000 nM (inactive) | GI50 [21]: > 100000 nM (inactive) | GI50 [22]: 30300 nM (inactive) | GI50 [23]: > 100000 nM (inactive) | GI50 [24]: > 100000 nM (inactive) | GI50 [25]: > 100000 nM (inactive) | GI50 [26]: > 100000 nM (inactive) | GI50 [27]: > 100000 nM (inactive) | GI50 [28]: 85100 nM (inactive) | GI50 [29]: 37000 nM (inactive) | GI50 [30]: 67900 nM (inactive) | GI50 [31]: 50400 nM (inactive) | GI50 [32]: > 100000 nM (inactive) | GI50 [33]: 39300 nM (inactive) | GI50 [34]: > 100000 nM (inactive) | GI50 [35]: > 100000 nM (inactive) | GI50 [36]: 64100 nM (inactive) | GI50 [37]: > 100000 nM (inactive) | GI50 [38]: > 100000 nM (inactive) | GI50 [39]: 80900 nM (inactive) | GI50 [40]: > 100000 nM (inactive) | GI50 [41]: 50500 nM (inactive) | GI50 [42]: 61900 nM (inactive) | GI50 [43]: > 100000 nM (inactive) | GI50 [44]: > 100000 nM (inactive) | GI50 [45]: 67000 nM (inactive) | GI50 [46]: 66700 nM (inactive) | GI50 [47]: 18900 nM (inactive) | GI50 [48]: 1530 nM (inactive) | GI50 [49]: 88900 nM (inactive) | GI50 [50]: 41900 nM (inactive) | GI50 [51]: > 100000 nM (inactive) | GI50 [52]: > 100000 nM (inactive) | GI50 [53]: > 100000 nM (inactive) | GI50 [54]: 33400 nM (inactive) | GI50 [55]: 40900 nM (inactive) | GI50 [56]: 34200 nM (inactive) | GI50 [57]: > 100000 nM (inactive)

O=C1c2cc([N+](=O)[O-])sc2C(=O)c2c([N+](=O)[O-])csc21
GI50 [1]: 708 nM (active) | GI50 [2]: 551 nM (active) | GI50 [3]: 968 nM (active) | GI50 [4]: 1870 nM (inactive) | GI50 [5]: 378 nM (active) | GI50 [6]: 1680 nM (inactive) | GI50 [7]: 1770 nM (inactive) | GI50 [8]: 640 nM (active) | GI50 [9]: 802 nM (active) | GI50 [10]: 482 nM | GI50 [11]: 925 nM (active) | GI50 [12]: 456 nM (active) | GI50 [13]: 785 nM (active) | GI50 [14]: 713 nM (active) | GI50 [15]: 365 nM (active) | GI50 [16]: 75.9 nM (active) | GI50 [58]: 116 nM (active) | GI50 [17]: 1650 nM (inactive) | GI50 [18]: 400 nM (active) | GI50 [19]: 542 nM (active) | GI50 [20]: 1330 nM (inactive) | GI50 [21]: 379 nM (active) | GI50 [22]: 290 nM (active) | GI50 [23]: 274 nM (active) | GI50 [24]: 386 nM (active) | GI50 [25]: 1630 nM (inactive) | GI50 [26]: 166 nM (active) | GI50 [27]: 324 nM (active) | GI50 [28]: 349 nM (active) | GI50 [29]: 168 nM (active) | GI50 [30]: 38.2 nM (active) | GI50 [31]: 229 nM (active) | GI50 [32]: 1700 nM (inactive) | GI50 [33]: 1480 nM (inactive) | GI50 [34]: 711 nM (active) | GI50 [59]: 282 nM (active) | GI50 [35]: 1530 nM (inactive) | GI50 [36]: 189 nM (active) | GI50 [37]: 310 nM (active) | GI50 [38]: 1630 nM (inactive) | GI50 [39]: 1170 nM (inactive) | GI50 [40]: 1900 nM (inactive) | GI50 [41]: 600 nM (active) | GI50 [42]: 706 nM (active) | GI50 [44]: 112 nM (active) | GI50 [45]: 650 nM (active) | GI50 [46]: 1240 nM (inactive) | GI50 [47]: 1920 nM (inactive) | GI50 [48]: 47.9 nM (active) | GI50 [49]: 1110 nM (active) | GI50 [50]: 690 nM (active) | GI50 [51]: 1550 nM (inactive) | GI50 [52]: 122 nM (active) | GI50 [53]: 483 nM (active) | GI50 [54]: 1480 nM (inactive) | GI50 [55]: 1520 nM (inactive) | GI50 [56]: 782 nM (active) | GI50 [57]: 367 nM (active)
